According to patent US6359005B1, “Method for the treatment of mania and bipolar disorder” (Warner-Lambert Company, priority 1998, dated 2002):

Experiments:
Metabolism in the body = settings: in vivo
[1] = Toxicity / tolerability of the compound; settings: in vivo
[2] = test system: healthy subjects and patients suffering from anxiety; experiment: Studies of healthy subjects and patients suffering from anxiety; assay type: in vivo, human
Excerpt: This is a novel use for pregabalin which would not be obvious to a medical practitioner of ordinary skill.
This effect will be beneficial in acute mania and will also lead to reducing the risk for onset of a new episode of mania in a predisposed individual. Thus, the prophylactic use of pregabalin for bipolar disorder is also taught.

CC(C)C[C@H](CN)CC(=O)O [Pregabalin, (S)-3-(aminomethyl)-5-methylhexanoic acid]
Metabolism in the body (Metabolism in the body): not metabolized in the body
Tolerability [1]: well-tolerated
Effects noted in subjects (sedation, calming) ([2]; healthy subjects and patients suffering from anxiety): sedative and calming effects
Effect on sleep ([2]; human, in vivo): enhance sleep
